Assays:
[1] = system: catP reporter (Chloramphenicol Acetyl Transferase, CAT); assay type: cell-based, Clostridium sporogenes NCIMB 10696
C. sporogenes = assay type: cell-based, Clostridium sporogenes; settings: theophylline 0.1-10 mM supplemented at time zero
Description: For growth experiments, pre-cultures grown for 12 hours were diluted to a starting OD600 of 0.01 with fresh medium containing different concentrations of the inducer theophylline (0-10 mM). Because theophylline is dissolved in DMSO, appropriate quantities of DMSO were added to all the cultures to account for any effect DMSO might have on growth.

Clostridium sporogenes = assay type: in vitro ADME; settings: 2 mM in TYG medium; up to 20 hours
Description: To analyse if C. sporogenes consumes theophylline, 12 hour cultures were diluted to a staring OD600 of 0.01. At an OD600 of ≈0.5 cultures were induced with 2 mM theophylline. 1 mL samples were taken immediately and then at 2, 4, 6, 8, 10 and 20 hours after supplementation of theophylline. Samples were centrifuged for 10 min and 10000×g. Supernatants were used to determine the concentration of theophylline using an Alliance HT 2795 HPLC (Waters corporation) coupled to a Micromass Quattro LC Mass Spectrometer (Waters Wilmslow) in positive mode from m/z 70 to 500 for all samples at a scan rate of 1 cycle/s and equipped with an electrospray source. The general parameters were as follows: capillary voltage 2000 V, sampling cone 30 V, source temperature 130° C., desolvation temperature 350° C., cone gas flow 64 L/h and desolvation gas flow 621 L/h.
Prior to ionization, chromatographic separation was achieved using a Supelco Ascentis Express HPLC column (100 mm×3 mm, 2.7 μM, Sigma Aldrich). The mobile phase consisted of (A) water with 0.1% v/v formic acid and (B) methanol with 0.1% v/v formic acid. […]
As requisite of a good inducer, it was ascertained that theophylline is not metabolized by Clostridium sporogenes. […] The concentration of theophylline was monitored by HPLC/MS (high-performance liquid chromatography-mass spectrometry) analysis of cell-free supernatant samples over time.

With `Cn1c(=O)c2[nH]cnc2n(C)c1=O` [theophylline] the “dose dependency of gene expression” value [1] was “higher levels of gene expression”, the “concentrations resulting in a reduction of growth” value (C. sporogenes) was “higher than 5 mM” and the “concentration of theophylline in cell-free supernatant over time” value (Clostridium sporogenes) was “remains constant”.

From patent US20220090096A1 (priority 2019, published 2022)
